Experiment [1] concerns mildews. Kind of experiment: Mildew proofness of lenses with anti-reflecting membrane containing mildew proofing agent, left to stand in thermo-hygrostat. Format: cell-based. To be noted: acrylic resin lens, anti-reflecting membrane containing the agent; 1 week in thermo-hygrostat of 40° C. and 95% RH; visual inspection and 5× magnifier. On the set-up: key: ∘: Growing of mildews was not recognized by visual inspection and inspection with a 5x magnifier.; Growing of mildews was not recognized by visual inspection, but recognized by inspection with a 5x magnifier.; xx: Growing of mildews was recognized by both the visual inspection and the inspection with a 5x magnifier. Here is the method:
Anti-reflecting paints containing the mildew proofing agentwere prepared by mixing a silica sol solution as a binder (containing 2-propanol as a main solvent and 10% by weight of an alkoxysilane polymer) (2 parts by weight), a 5 wt % dispersion of silicon dioxide having an average length of major axis of about 60 nm as inorganic oxide particles (35 parts by weight), 2-propanol (100 parts by weight), and a 2 wt % 2-propanol solution of the mildew proofing agent (2 parts by weight). Here, 2-propanol was used as the solvent because most of the mildew proofing agents only partially dissolve in water.
Next, the same lens of acrylic resin as used in Example 1 as one of the optical parts of the present invention was cleaned in the same manner as in Example 1, and thereafter the lens was coated with the anti-reflecting paint containing the mildew proofing agent in place of the anti-reflecting paint used in Example 1, followed by heating the coat. In this case, the anti-reflecting paint was also coated on the back surface of the lens as in Example 1. Thus, a lens having an anti-reflecting membrane containing the mildew proofing agent was produced.
Next, in order to confirm whether these lenses had mildew proofness or not, these lenses were left to stand for 1 week in a thermo-hygrostat of 40° C. and 95% RH. For comparison, the lens having the anti-reflecting membrane containing no mildew proofing agent was also left to stand together. After 1 week, it was confirmed by visual inspection and inspection with a 5× magnifier whether mildews grew or not.

Experiment [2] has as its system mildews. Kind of experiment: Mildew proofness of the lenses left to stand in thermo-hygrostat after dipping in hot water. Format: cell-based. On the set-up: key to Growing of mildew: ∘: Growing of mildews was not recognized by visual inspection and inspection with a 5x magnifier.; Growing of mildews was not recognized by visual inspection, but recognized by inspection with a 5x magnifier.; xx: Growing of mildews was recognized by both the visual inspection and the inspection with a 5x magnifier. To be noted: lens dipped in hot water at 40° C. for 1 hour; for Growing of mildew: then 1 week in thermo-hygrostat of 40° C. and 95% RH, visual inspection and 5× magnifier; for Growing of mildews (in words): then 1 week at 40° C. and 95% RH. Here is the method: Then, the lenses having the anti-reflecting membrane containing the mildew proofing agent were dipped in hot water at 40° C. for 1 hour and thereafter were left to stand for 1 week in a thermo-hygrostat of 40° C. and 95% RH. After lapse of 1 week, it was examined by visual inspection and inspection with a 5× magnifier whether mildews grew or not.
In compounds 13, 16, 18 and 20, the elemental proportion of nitrogen was 6% by weight or more.

Molecules are shown by their SMILES.

`CC(C)(C)OC(=O)Nc1ccc(Cl)cc1` [Compound 27]: in the experiment on mildews [1], the Growing of mildew entry is given as “∘”.

With `CCCCCC[n+]1ccccc1` [Compound 17], the Growing of mildew result in the experiment with mildews [1] and in the experiment on mildews [2] was “∘” in each case.

As for `C[n+]1ccccc1` [Compound 18], the Growing of mildew result with mildews [1] is given as “∘”; in the experiment on mildews [2], “x”. Further, in the experiment on mildews [2], the “Growing of mildews (in words)” value is on record as “Growing of a few mildews was seen”.

Regarding `CCCCCCCC[n+]1ccccc1` [Compound 13], the Growing of mildew entry is “∘” with mildews [1] and “x” in the experiment on mildews [2]. For the same compound, the “Growing of mildews (in words)” value in the experiment with mildews [2] is listed as “Growing of a few mildews was seen”.

For `CC(C)(C)OC(=O)Nc1ccc(I)cc1` [Compound 28], the Growing of mildew result in the experiment on mildews [1] is listed as “∘”.

`O=C(Nc1ccc(Cl)cc1)Oc1ccccc1` [Compound 29]: the Growing of mildew entry in the experiment on mildews [1] is on record as “∘”.

`CCCCCCCCCC[n+]1ccccc1` [Compound 14]: the Growing of mildew result in the experiment with mildews [1] and with mildews [2] was “∘” throughout.

On to `CCCC[n+]1ccccc1` [Compound 16], for which the Growing of mildew entry in the experiment with mildews [1] is “∘”; in the experiment on mildews [2], “x”. Besides, the “Growing of mildews (in words)” value with mildews [2] is listed as “Growing of a few mildews was seen”.

The values are drawn from patent US20070053062A1, “Optical part and projection type display apparatus using same” (priority 2005, published 2007).
